In one assay the target is human PDE4D3 (Homo sapiens (Human), UniProt Q08499). The experiment in a line: PDE4D3 Scintillation Proximity Assay (SPA), inhibition of enzyme activity. In kind it is biochemical. As to conditions: read-out: Human PDE4D FL. On the procedure: (§1) The PDE4A, PDE4B, PDE4C and PDE4D binding affinity for the compounds of the present invention was determined utilizing the following biological assay(s):
A portion of the human PDE4D3 coding sequence (amino acids 50 to 672 from the sequence with accession number Q08499-2) was cloned into the baculovirus expression vector pFastBac (Invitrogen) engineered to include a C-terminal His6 affinity tag to aid in purification as described in Seeger, T. F. et al., Brain Research 985 (2003) 113-126. The recombinant Bacmid was isolated and used to transfect insect cells to generate a viral stock. To generate cell paste for purification, insect cells were infected and cells were harvested 72 hours after infection. Insect cell paste was lysed and after centrifugation, the supernatant was chromatographed on Ni-NTA agarose (Qiagen) as described in Seeger, T. F. et al., Brain Research 985 (2003) 113-126. Ni-NTA agarose eluting fractions containing PDE4 were pooled, diluted with Q Buffer A (50 mM Tris HCl pH 8, 4% glycerol, 100 mM NaCl, 1 mM TCEP, Protease inhibitors EDTA-free (Roche)) to reduce NaCl to ˜200 mM, and loaded on a Q Sepharose (GE Healthcare) column. After washing with Q buffer A to baseline, PDE4D was eluted with a gradient from 10% to 60% of Buffer B (50 mM Tris HCl pH 8, 1 M NaCl, 4% glycerol, 1 mM TCEP). PDE4D fractions were analyzed by SDS-PAGE Coomassie blue staining, pooled based on purity, frozen and stored at −80° C.
(§2) The PDE4A3, PDE4B1, PDE4C1 and PDE4D3 assays use the Scintillation Proximity Assay (SPA) technology to measure the inhibition of human recombinant PDE4A1, PDE4B3, PDE4C1, and PDE4D3 enzyme activity by compounds in vitro. The PDE4A1, PDE4B3, PDE4C1, and PDE4D3 assays are run in parallel using identical parameters, except for the concentration of enzyme ([…]). The assays are performed in a 384-well format with 50 uL assay buffer (50 mM TRIS pH7.5; 1.3 mM MgCl2; 0.01% Brij) containing enough PDE4A3, PDE4B1, PDE4C1, and PDE4D to convert ˜20% of substrate (1 μM cAMP consisting of 20 nM 3H-cAMP+[…] cold cAMP) and a range of inhibitors. Reactions are incubated for 30 min at 25° C. The addition of 20 uL of 8 mg/ml yitrium silicate SPA beads (Perkin Elmer) stops the reaction. The plates are sealed (TopSeal, Perkin Elmer) and the beads are allowed to settle for 8 hrs, after which they are read on the Trilux Microbeta overnight.

The next assay has as its target Human PDE4B1 (Homo sapiens (Human), UniProt Q07343, S133E/S654A/S659A/S661A). The experiment in a line: PDE4B1 Scintillation Proximity Assay (SPA), inhibition of enzyme activity. In kind it is biochemical. The conditions noted are these: read-out: Human PDE4B FL. On the procedure: as §1
The recombinant Bacmid was isolated and used to transfect insect cells to generate a viral stock. To generate cell paste for purification, insect cells were infected with the virus stock and cells were harvested 72 hours after infection as described in Seeger, T. F. et al., Brain Research 985 (2003) 113-126. Insect cell paste was lysed and after centrifugation, the supernatant was chromatographed on Ni-NTA agarose (Qiagen) as described in Seeger, T. F. et al., Brain Research 985 (2003) 113-126. Ni-NTA agarose eluting fractions containing PDE4 were pooled, diluted with Q buffer A (20 mM Tris HCl pH 8, 5% glycerol, 1 mM TCEP) to reduce NaCl to ˜100 mM and loaded on a Source 15Q (GE Healthcare) column. After washing with Q buffer A/10% buffer B to baseline, PDE4D was eluted with a gradient from 10% to 60% of Buffer B (20 mM Tris HCl pH 8, 1 M NaCl, 5% glycerol, 1 mM TCEP). PDE4D fractions were analyzed by SDS-PAGE Coomassie blue staining, pooled based on purity, frozen and stored at −80° C.
as §2
In general terms: Scintillation proximity formats need no separation of bound from free tracer.

[1] abbreviates: Table 9, geometric mean of 2-9 determinations unless otherwise indicated.
Setting [2] is: Table 10, geometric mean of 2-9 determinations unless otherwise indicated.

The structures appear in SMILES notation. Structures can show the parent of a compound that is named as a salt. Where two headings read alike, the source gives them in different places.

Experimental findings from US11472805B2, “Tricyclic compounds and their use as phosphodiesterase inhibitors” (Pfizer Inc., priority 2015, dated 2022) are described below.

Human PDE4B1, sequence (Q07343 122-736 S133E/S654A/S659A/S661A): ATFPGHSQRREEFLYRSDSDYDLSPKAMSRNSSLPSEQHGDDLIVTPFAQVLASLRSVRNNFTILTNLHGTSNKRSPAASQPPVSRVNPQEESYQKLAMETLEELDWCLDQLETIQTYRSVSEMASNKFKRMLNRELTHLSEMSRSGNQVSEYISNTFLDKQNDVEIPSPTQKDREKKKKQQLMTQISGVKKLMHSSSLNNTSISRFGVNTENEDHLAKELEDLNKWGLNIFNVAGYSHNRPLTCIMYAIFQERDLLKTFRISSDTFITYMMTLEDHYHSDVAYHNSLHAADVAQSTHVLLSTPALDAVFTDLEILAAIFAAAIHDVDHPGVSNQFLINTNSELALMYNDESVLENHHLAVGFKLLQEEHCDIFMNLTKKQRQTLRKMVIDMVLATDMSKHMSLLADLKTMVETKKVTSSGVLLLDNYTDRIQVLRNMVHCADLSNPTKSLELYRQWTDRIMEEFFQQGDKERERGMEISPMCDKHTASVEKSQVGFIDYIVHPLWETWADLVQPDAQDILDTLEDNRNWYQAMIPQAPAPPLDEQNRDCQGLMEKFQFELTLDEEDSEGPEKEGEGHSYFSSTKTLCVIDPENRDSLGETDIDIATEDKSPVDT
human PDE4D3, sequence (Q08499 186-808): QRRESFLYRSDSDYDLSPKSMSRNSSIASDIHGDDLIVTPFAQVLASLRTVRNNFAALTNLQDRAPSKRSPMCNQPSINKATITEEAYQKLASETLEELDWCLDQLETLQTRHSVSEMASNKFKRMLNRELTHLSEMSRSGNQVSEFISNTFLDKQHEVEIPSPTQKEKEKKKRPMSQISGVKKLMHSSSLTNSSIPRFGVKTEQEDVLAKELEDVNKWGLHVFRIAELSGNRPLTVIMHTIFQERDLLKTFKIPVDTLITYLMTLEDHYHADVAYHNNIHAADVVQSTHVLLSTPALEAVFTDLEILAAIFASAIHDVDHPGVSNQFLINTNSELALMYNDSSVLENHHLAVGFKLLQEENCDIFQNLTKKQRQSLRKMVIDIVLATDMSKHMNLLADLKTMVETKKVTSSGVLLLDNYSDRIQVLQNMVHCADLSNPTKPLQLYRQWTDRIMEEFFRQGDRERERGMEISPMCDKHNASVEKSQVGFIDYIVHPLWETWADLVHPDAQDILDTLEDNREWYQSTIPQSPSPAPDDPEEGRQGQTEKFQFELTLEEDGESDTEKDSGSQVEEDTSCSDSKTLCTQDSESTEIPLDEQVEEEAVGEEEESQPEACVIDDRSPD

Regarding `O=C1c2c(-c3ccc(Cl)cc3)c3ncccc3n2C[C@H]2CCCN12` [Example 3, (6aR)-12-(4-Chlorophenyl)-6a, 7,8,9-tetrahydro-6H,11H-pyrido[2′,3′:4,5]pyrrolo[1,2-a]pyrrolo[1,2-d]pyrazin-11-one, trifluoroacetate salt], the figures for the IC50 on human PDE4D3 (setting [1]) and at Human PDE4B1 (setting [1]) were 150 nM and 1.38 nM, respectively.
Take `O=C1c2c(-c3ccc(Cl)cc3)c3ncccc3n2CCN1c1nnc[nH]1` [Example 5, 10-(4-Chlorophenyl)-8-(4H-1,2,4-triazol-3-yl)-7,8-dihydropyrido[2′,3′:4,5]pyrrolo[1,2-a]pyrazin-9(6H)-one]: the IC50 on human PDE4D3 (setting [1]) stood at 476 nM; on Human PDE4B1 (setting [1]), 5.87 nM.
On to `O=c1c2c(-c3ccc(Cl)cc3)c3ncccc3n2ccn1-c1nnc[nH]1` [Example 6, 10-(4-Chlorophenyl)-8-(4H-1,2,4-triazol-3-yl)pyrido[2′,3′:4,5]pyrrolo[1,2-a]pyrazin-9(8H)-one], for which the results for the IC50 at human PDE4D3 (setting [1]) and at Human PDE4B1 (setting [1]) were 2670 nM and 8.32 nM, respectively.
Regarding `COc1cc(-c2c3n(c4cccnc24)CCN(C2CC2)C3=O)c(F)cc1Cl` [Example 15, 10-(4-Chloro-2-fluoro-5-methoxyphenyl)-8-cyclopropyl-7,8-dihydropyrido[2′,3′: 4,5]pyrrolo[1,2-a]pyrazin-9(6H)-one], the IC50 on human PDE4D3 (setting [1]) came out at 442 nM; on Human PDE4B1 (setting [1]), 6.87 nM.
Consider `CCCN1CCn2c(c(-c3ccc(Cl)cc3)c3ncccc32)C1=O` [Example 17, 10-(4-Chlorophenyl)-8-propyl-7,8-dihydropyrido[2′,3′:4,5]pyrrolo[1,2-a]pyrazin-9(6H)-one], for which the IC50 on human PDE4D3 (setting [1]) turned out to be 81 nM; at Human PDE4B1 (setting [1]) it was 1 nM.
With `O=C1NCCn2c1c(-c1ccc(Cl)cc1)c1ncccc12` [Example 19, 10-(4-Chlorophenyl)-7,8-dihydropyrido[2′,3′:4,5]pyrrolo[1,2-a]pyrazin-9(6H)-one], the values for the IC50 on human PDE4D3 (setting [1]) and at Human PDE4B1 (setting [1]) were 1600 nM and 18.5 nM, respectively.
Take `CN1CCn2c(c(-c3ccc(Cl)cc3)c3ncccc32)C1=O` [Example 30, 10-(4-Chlorophenyl)-8-methyl-7,8-dihydropyrido[2′,3′:4,5]pyrrolo[1,2-a]pyrazin-9(6H)-one]: the IC50 on human PDE4D3 (setting [1]) was 803 nM; on Human PDE4B1 (setting [1]), 27.9 nM.
The corresponding values for `CCN1CCn2c(c(-c3ccc(Cl)cc3)c3ncccc32)C1=O` [Example 31, 10-(4-Chlorophenyl)-8-ethyl-7,8-dihydropyrido[2′,3′:4,5]pyrrolo[1,2-a]pyrazin-9(6H)-one] are 87.9 nM and 2.43 nM.
With `O=C1c2c(-c3ccsc3)c3ncccc3n2CCN1C1CC1` [Example 39, 8-Cyclopropyl-10-(thiophen-3-yl)-7,8-dihydropyrido[2′,3′:4,5]pyrrolo[1,2-a]pyrazin-9(6H)-one], the IC50 was found to be 1720 nM at human PDE4D3 (setting [1]) and 78.7 nM at Human PDE4B1 (setting [1]).
As for `N#Cc1ccc(-c2c3n(c4cccnc24)CCN(C2CC2)C3=O)cc1` [Example 43, 4-(8-Cyclopropyl-9-oxo-6,7,8,9-tetrahydropyrido[2′,3′:4,5]pyrrolo[1,2-a]pyrazin-10-yl)benzonitrile], the IC50 at human PDE4D3 (setting [1]) was 1470 nM; at Human PDE4B1 (setting [1]), 26.5 nM.
For the compound `O=C1c2c(-c3ccc(Cl)cc3)c3ncccc3n2C[C@@H]2CCCN12` [Example 52, (6aS)-12-(4-Chlorophenyl)-6a,7,8,9-tetrahydro-6H,11H-pyrido[2′,3′:4,5]pyrrolo[1,2-a]pyrrolo[1,2-d]pyrazin-11-one], the IC50 stood at 1110 nM on human PDE4D3 (setting [1]) and 12.4 nM on Human PDE4B1 (setting [1]).
Consider `COc1ccc(-c2c3n(c4cccnc24)CCN(C2CC2)C3=O)cn1` [Example 53, 8-Cyclopropyl-10-(6-methoxypyridin-3-yl)-7,8-dihydropyrido[2′,3′:4,5]pyrrolo[1,2-a]pyrazin-9(6H)-one], for which the IC50 on human PDE4D3 (setting [1]) came out at 426 nM; on Human PDE4B1 (setting [1]), 6.54 nM.
In the same order, the values of `Cc1cc(Cl)ccc1-c1c2n(c3cccnc13)CCN(C1CC1)C2=O` [Example 56, 10-(4-Chloro-2-methylphenyl)-8-cyclopropyl-7,8-dihydropyrido[2′,3′:4,5]pyrrolo[1,2-a]pyrazin-9(6H)-one] are 253 nM and 5.52 nM.
As for `O=C1c2c(-c3ccc(F)cn3)c3ncccc3n2CCN1C1CC1` [Example 62, 8-Cyclopropyl-10-(5-fluoropyridin-2-yl)-7,8-dihydropyrido[2′,3′:4,5]pyrrolo[1,2-a]pyrazin-9(6H)-one], the IC50 at human PDE4D3 (setting [1]) was > 30000 nM; at Human PDE4B1 (setting [1]) it was 332 nM.
Consider `O=C1c2c(-c3ccc(Cl)cc3)c3ncccc3n2CC2CCN12` (stereo not shown) [Example 67, 11-(4-Chlorophenyl)-6,6a,7,8-tetrahydro-10H-azeto[1,2-a]pyrido[2′,3′:4,5]pyrrolo[1,2-d]pyrazin-10-one], for which the figures for the IC50 at human PDE4D3 (setting [1]) and at Human PDE4B1 (setting [1]) were 862 nM and 4.93 nM, respectively.
Take `CC(=O)N1CCn2c(c(-c3ccc(Cl)cc3)c3ncccc32)C1=O` [Example 78, 8-Acetyl-10-(4-chlorophenyl)-7,8-dihydropyrido[2′,3′:4,5]pyrrolo[1,2-a]pyrazin-9(6H)-one]: the IC50 at human PDE4D3 (setting [2]) came to 30.6 nM; at Human PDE4B1 (setting [2]), 59.5 nM.
In the same order, the values of `Cc1ccc(-c2c3n(c4nccnc24)CCN(C2CC2)C3=O)cn1` [Example 83, 8-Cyclopropyl-10-(6-methylpyridin-3-yl)-7,8-dihydropyrrolo[1,2-a:4,5-b′]dipyrazin-9(6H)-one] are > 29700 nM and 15400 nM.
The corresponding values for `COc1ncc(-c2c3n(c4nccnc24)CCN(C2CC2)C3=O)cn1` [Example 87, 8-Cyclopropyl-10-(2-methoxypyrimidin-5-yl)-7,8-dihydropyrrolo[1,2-a:4,5-b′]dipyrazin-9(6H)-one] are > 28700 nM and 2640 nM.
In the same order, the values of `COc1ncc(-c2c3n(c4cncnc24)CCN(C2CC2)C3=O)cn1` [Example 89, 8-Cyclopropyl-10-(2-methoxypyrimidin-5-yl)-7,8-dihydropyrazino[1′,2′:1,5]pyrrolo[3,2-d]pyrimidin-9(6H)-one] are > 30000 nM and 2960 nM.
On to `O=C1c2c(-n3cccn3)c3ncccc3n2CCN1C1CC1` [Example 92, 8-Cyclopropyl-10-(1H-pyrazol-1-yl)-7,8-dihydropyrido[2′,3′:4,5]pyrrolo[1,2-a]pyrazin-9(6H)-one], for which the IC50 is > 29900 nM at human PDE4D3 (setting [2]) and 15300 nM on Human PDE4B1 (setting [2]).
